Assay results taken from the supplement of paper PMC13380429.

What was measured:
Conditions in all cases: 72 h
[1] = tested on: Caco-2; assay: cell viability relative to DMSO; higher = less toxic
[2] = tested on: Calu-3; assay: as above
[3] = tested on: HepG2; assay: as above
[4] = tested on: U2OS; assay: as above
[5] = tested on: Vero E6; assay: as above
[6] = tested on: Calu-3; assay: relative viability EC50 (midpoint between 100% and the lowest measured viability); higher = less toxic
[7] = tested on: HepG2; assay: as above
[8] = tested on: U2OS; assay: as above
[9] = tested on: Vero E6; assay: as above
[10] = tested on: Caco-2; assay: drug sensitivity score (DSS) for viability; higher = more toxic; extreme values may be limits of the assay
[11] = tested on: Calu-3; assay: as above
[12] = tested on: HepG2; assay: as above
[13] = tested on: U2OS; assay: as above
[14] = tested on: Vero E6; assay: as above

Row | Compound | cell viability ([1]; 1 nM) [%] | cell viability ([1]; 10 nM) [%] | cell viability ([1]; 100 nM) [%] | cell viability ([1]; 1000 nM) [%] | cell viability ([1]; 10000 nM) [%] | cell viability ([2]; 1 nM) [%] | cell viability ([2]; 10 nM) [%] | cell viability ([2]; 100 nM) [%] | cell viability ([2]; 1000 nM) [%] | cell viability ([2]; 10000 nM) [%] | cell viability ([3]; 1 nM) [%] | cell viability ([3]; 10 nM) [%] | cell viability ([3]; 100 nM) [%] | cell viability ([3]; 1000 nM) [%] | cell viability ([3]; 10000 nM) [%] | cell viability ([4]; 1 nM) [%] | cell viability ([4]; 10 nM) [%] | cell viability ([4]; 100 nM) [%] | cell viability ([4]; 1000 nM) [%] | cell viability ([4]; 10000 nM) [%] | cell viability ([5]; 1 nM) [%] | cell viability ([5]; 10 nM) [%] | cell viability ([5]; 100 nM) [%] | cell viability ([5]; 1000 nM) [%] | cell viability ([5]; 10000 nM) [%] | relative viability EC50 [6] [nM] | relative viability EC50 [7] [nM] | relative viability EC50 [8] [nM] | relative viability EC50 [9] [nM] | drug sensitivity score [10] | drug sensitivity score [11] | drug sensitivity score [12] | drug sensitivity score [13] | drug sensitivity score [14]
1 | NC[C@@](O)(c1ccc(Cl)cc1)c1ccc(-c2cn[nH]c2)cc1 | 93.7 | 104 | 104 | 99.9 | 70 | 98.5 | 99.9 | 119 | 144 | 105 | 89.6 | 93.2 | 111 | 93.8 | 79.5 | 104 | 103 | 95.5 | 94.6 | 44.4 | 101 | 104 | 97.5 | 70.5 | 30.7 | > 10000 | > 10000 | 2360 | 1160 | 1.3 | 0 | 1.4 | 3.9 | 7.4
2 | CC(C)Oc1cccc(-n2c(CCc3c[nH]c4ccc(Br)cc34)nc3ccccc3c2=O)c1 | 94.9 | 101 | 101 | 99.1 | 73.3 | 95.6 | 93.9 | 92.9 | 112 | 108 | 119 | 97.9 | 107 | 85.9 | 92.3 | 98.6 | 103 | 98 | 102 | 97.8 | 102 | 101 | 100 | 99.7 | 99.3 | > 10000 | > 10000 | > 10000 | > 10000 | 1.2 | 0 | 1 | 0 | 0
3 | CCOc1cc2ncc(C#N)c(Nc3ccc(F)c(Cl)c3)c2cc1NC(=O)/C=C/CN(C)C [pelitinib] | 96.9 | 96.9 | 85.8 | 64.7 | 51.2 | 88.1 | 83 | 45 | 32 | 9.5 | 107 | 99.5 | 99 | 59.7 | 40.2 | 99 | 98.9 | 93.6 | 67.7 | 5.3 | 106 | 96.4 | 87.3 | 22.6 | 7.9 | 70.7 | 706 | 1380 | 334 | 7.9 | 21.7 | 8.1 | 9.3 | 15.9
4 | COC[C@@H](c1ccc(C(F)(F)F)cc1)N1CCN(C2(C)CCN(C(=O)c3c(C)ncnc3C)CC2)C[C@@H]1C [vicriviroc] |  |  |  |  |  | 106 | 93.6 | 104 | 96.6 | 104 | 98.8 | 101 | 98.9 | 101 | 84.8 | 100 | 94.2 | 95 | 96.6 | 95 | 95.3 | 97 | 89.9 | 95.7 | 94.7 | > 10000 | > 10000 | > 10000 | > 10000 |  | 0 | 0.2 | 0 | 0
